The nature of data set [1]: Solubility of compound in phosphate buffer at 100 uM. Type of data set: physicochemical.
A short description of data set [2]: Solubility of compound in phosphate buffer at 15 uM. Type of data set: physicochemical.
Data set [3] has as its target T1, Telomeric repeat-binding factor 2-interacting protein 1 (Homo sapiens, UniProt Q9NYB0).
T1 sequence (Q9NYB0 whole entry): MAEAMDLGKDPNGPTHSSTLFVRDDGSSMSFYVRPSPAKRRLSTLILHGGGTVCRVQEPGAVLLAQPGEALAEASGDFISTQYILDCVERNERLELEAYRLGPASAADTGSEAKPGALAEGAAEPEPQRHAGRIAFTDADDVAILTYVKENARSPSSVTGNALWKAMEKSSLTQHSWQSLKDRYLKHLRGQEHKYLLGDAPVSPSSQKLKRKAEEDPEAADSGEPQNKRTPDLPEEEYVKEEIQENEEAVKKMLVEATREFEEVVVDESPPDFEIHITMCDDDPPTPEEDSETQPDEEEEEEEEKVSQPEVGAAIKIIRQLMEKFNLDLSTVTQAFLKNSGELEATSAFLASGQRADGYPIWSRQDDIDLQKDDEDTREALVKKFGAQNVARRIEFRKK
Briefly: Competitive binding to RAP1 (unknown origin) incubated for 1 hr by fluorescence polarization-based binding assay.

This note sets out measurements from ChEMBL document CHEMBL3751807, “Design of High-Affinity Stapled Peptides To Target the Repressor Activator Protein 1 (RAP1)/Telomeric Repeat-Binding Factor 2 (TRF2) Protein-Protein Interaction in the Shelterin Complex” (J Med Chem, 2016).

With `CC[C@@H](C)[C@H](NC(=O)[C@@H](NC(=O)[C@@H](NC(C)=O)[C@@H](C)O)[C@@H](C)O)C(=O)NCC(=O)N[C@@H](CCSC)C(=O)N[C@@H](CCSC)C(=O)N[C@H](C(=O)N[C@@H](CC(C)C)C(=O)N[C@@H](CCCCN)C(=O)N[C@@H]1CCCCn2cc(nn2)C[C@H](C(=O)N[C@@H](CC(C)C)C(=O)N[C@H](CO)C(N)=O)NC(=O)[C@@H](CCCCN)NC(=O)[C@@H](Cc2ccccc2)NC(=O)[C@H](C)NC1=O)[C@@H](C)O` (stereo in doubt), the solubility entry in data set [1] is listed as “soluble”.
Turning to `C#CC[C@@H](NC(=O)[C@H](CCCCN)NC(=O)[C@H](Cc1ccccc1)NC(=O)[C@H](C)NC(=O)[C@H](CCCCN=[N+]=[N-])NC(=O)[C@H](CCCCN)NC(=O)[C@H](CC(C)C)NC(=O)[C@@H](NC(=O)[C@H](CCSC)NC(=O)[C@H](CCSC)NC(=O)CNC(=O)[C@@H](NC(=O)[C@@H](NC(=O)[C@@H](NC(C)=O)[C@@H](C)O)[C@@H](C)O)[C@@H](C)CC)[C@@H](C)O)C(=O)N[C@@H](CC(C)C)C(=O)N[C@@H](CO)C(N)=O`, the solubility entry in data set [2] is “Insoluble”.
For the molecule Ac-TTIGMKTLKAAFKT-NH2, the IC50 in data set [3] is more than 200 µM.
